Source: patent publication US10519197B1, “Peptide-based proteasome inhibitors for treating conditions mediated by senescent cells and for treating cancer” (UNITY BIOTECHNOLOGY, INC., priority 2017, dated 2019)
One block for each molecule: values may come before it.

Assays:
Format in all cases: in vivo, mouse
[1] = test system: 3MR and INK-ATTAC mice exposed to cigarette smoke; assay: Cigarette smoke COPD model, oxygen saturation by pulse oximeter; conditions: after two months of cigarette smoke exposure, compared with untreated controls
Experimental: As a model for chronic obstructive pulmonary disease (COPD), mice were exposed to cigarette smoke. The effect of a senolytic agent on the mice exposed to smoke is assessed by senescent cell clearance, lung function, and histopathology.
The mice used in this study include the 3MR strain, described in US 2017/0027139 A1 and in Demaria et al., Dev Cell. 2014 December 22; 31(6): 722-733. The 3MR mouse has a transgene encoding thymidine kinase that converts the prodrug ganciclovir (GCV) to a compound that is lethal to cells. The enzyme in the transgene is placed under control of the p16 promoter, which causes it to be specifically expressed in senescent cells. Treatment of the mice with GCV eliminates senescent cells.
Other mice used in this study include the INK-ATTAC strain, described in US 2015/0296755 A1 and in Baker et al., Nature 2011 Nov. 2; 479(7372):232-236. The INK-ATTAC mouse has a transgene encoding switchable caspase 8 under control of the p16 promoter. The caspase 8 can be activated by treating the mice with the switch compound AP20187, whereupon the caspase 8 directly induces apoptosis in senescent cells, eliminating them from the mouse.
To conduct the experiment, six-week-old 3MR (n=35) or INK-ATTAC (n=35) mice were chronically exposed to cigarette smoke generated from a Teague TE-10 system, an automatically-controlled cigarette smoking machine that produces a combination of side-stream and mainstream cigarette smoke in a chamber, which is transported to a collecting and mixing chamber where varying amounts of air is mixed with the smoke mixture. The COPD protocol was adapted from the COPD core facility at Johns Hopkins University (Rangasamy et al., 2004, J. Clin. Invest. 114:1248-1259; Yao et al., 2012, J. Clin. Invest. 122:2032-2045).
Mice received a total of 6 hours of cigarette smoke exposure per day, 5 days a week for 6 months. Each lighted cigarette (3R4F research cigarettes containing 10.9 mg of total particulate matter (TPM), 9.4 mg of tar, and 0.726 mg of nicotine, and 11.9 mg carbon monoxide per cigarette [University of Kentucky, Lexington, Ky.]) was puffed for 2 seconds and once every minute for a total of 8 puffs, with the flow rate of 1.05 L/min, to provide a standard puff of 35 cm^3. […] The smoke chamber atmosphere was monitored for total suspended particulates (80-120 mg/m3) and carbon monoxide (350 ppm). […]
After two months of cigarette smoke (CS) exposure, lung function was assessed by monitoring oxygen saturation using the MouseSTAT PhysioSuite™ pulse oximeter (Kent Scientific). […] Mice were monitored for 30 seconds and the average peripheral capillary oxygen saturation (SpO2) measurement over this duration was calculated.

[2] = Atherosclerosis model: circulating blood cell counts by Hemavet; conditions: 25 mg/kg intraperitoneally, timepoint 3 (week 12)
Experimental: (§1) Two groups of LDLR−/− mice (10 weeks) are fed a high fat diet (HFD) (Harlan Teklad TD.88137) having 42% calories from fat, beginning at Week 0 and throughout the study. Two groups of LDLR−/− mice (10 weeks) are fed normal chow (−HFD). From weeks 0-2, one group of HFD mice and −HFD mice are treated with Nutlin-3A (25 mg/kg, intraperitoneally). One treatment cycle is 14 days treatment, 14 days off. Vehicle is administered to one group of HFD mice and one group of −HFD mice. At week 4 (timepoint 1), one group of mice are sacrificed and to assess presence of senescent cells in the plaques. For the some of the remaining mice, Nutlin-3A and vehicle administration is repeated from weeks 4-6. At week 8 (timepoint 2), the mice are sacrificed and to assess presence of senescent cells in the plaques. The remaining mice are treated with Nutlin-3A or vehicle from weeks 8-10. At week 12 (timepoint 3), the mice are sacrificed and to assess the level of plaque and the number of senescent cells in the plaques.
(§2) At the end of timepoint 3, LDLR−/− mice fed a HFD and treated with Nutlin-3A or vehicle (n=3 for all groups) were sacrificed, and aortas were dissected and stained with Sudan IV to detect the presence of lipid. Body composition of the mice was analyzed by MRI, and circulating blood cells were counted by Hemavet™.

[3] = Atherosclerosis model: body composition by MRI; conditions: 25 mg/kg intraperitoneally, timepoint 3 (week 12), mice fed the high fat diet
Experimental: as §1, §2

[4] = test system: LDLR-/- mice fed a HFD; assay: Atherosclerosis model (LDLR-/- mice, high fat diet): Sudan IV staining of aortic plaques; conditions: 25 mg/kg intraperitoneally, timepoint 3 (week 12)
Experimental: as §1, §2

[5] = test system: MMP3, MMP13, PAI1, p21, IGFBP2, IL-1A, and IL-1B; assay: Atherosclerosis model (LDLR-/- mice, high fat diet): RT-PCR of SASP factors and senescent cell markers in aortic arches; conditions: 25 mg/kg intraperitoneally, HFD
Experimental: as §1, with “At week 8 (timepoint 2), the mice are sacrificed and to assess presence of senescent cells in the plaques. The remaining mice are treated with Nutlin-3A or vehicle from weeks 8-10. At week 12 (timepoint 3), the mice are sacrificed and to assess the level of plaque and the number of senescent cells in the plaques.” left out
At the end of timepoint 1, LDLR−/− mice fed a HFD and treated with Nutlin-3A or vehicle were sacrificed (n=3, all groups), and the aortic arches were dissected for RT-PCR analysis of SASP factors and senescent cell markers. Values were normalized to GAPDH and expressed as fold-change versus age-matched, vehicle-treated LDLR−/− mice on a normal diet.
At the end of timepoint 2, LDLR−/− mice fed a HFD and treated with Nutlin-3A or vehicle (n=3 for all groups) were sacrificed, and aortic arches were dissected for RT-PCR analysis of SASP factors and senescent cell markers. Values were normalized to GAPDH and expressed as fold-change versus age-matched, vehicle-treated LDLR−/− mice on a normal diet.

[6] = test system: p16, IL-6, and MMP13; assay: Osteoarthritis model (ACL surgery): qRT-PCR of senescence and SASP markers in operated joints; conditions: 5.8 μg per operated knee, intra-articular, q.o.d. for 2 weeks; 4 weeks post-surgery; mRNA by qRT-PCR
Experimental: (§3) The model was implemented as follows. C57BL/6J mice underwent surgery to cut the anterior cruciate ligament of one rear limb to induce osteoarthritis in the joint of that limb. During week 3 and week 4 post-surgery, the mice were treated with 5.8 μg of Nutlin-3A (n=7) per operated knee by intra-articular injection, q.o.d. for 2 weeks. At the end of 4 weeks post-surgery, joints of the mice were monitored for presence of senescent cells, assessed for function, monitored for markers of inflammation, and underwent histological assessment.
Two control groups of mice were included in the studies performed: one group comprising C57BL/6J or 3MR mice that had undergone a sham surgery (n=3) (i.e., surgical procedures followed except for cutting the ACL) and intra-articular injections of vehicle parallel to the GCV (ganciclovir) treated group; and one group comprising C57BL/6J or 3MR mice that had undergone an ACL surgery and received intra-articular injections of vehicle (n=5) parallel to the GCV-treated group. RNA from the operated joints of mice from the Nutlin-3A treated mice was analyzed for expression of SASP factors (mmp3, IL-6) and senescence markers (p16). qRT-PCR was performed to detect mRNA levels.

[7] = test system: C57BL/6J mice with surgery-induced osteoarthritis; assay: Osteoarthritis model (ACL surgery): histopathology of joint tissue; conditions: 5.8 μg per operated knee, intra-articular; 4 weeks post-surgery
Experimental: as §3

[8] = test system: C57BL/6J mice with surgery-induced osteoarthritis; assay: Osteoarthritis model (ACL surgery): weight bearing test; conditions: 5.8 μg per operated knee, intra-articular; 4 weeks post-surgery
Experimental: as §3
Function of the limbs was assessed 4 weeks post-surgery by a weight bearing test to determine which leg the mice favored. The mice were allowed to acclimate to the chamber on at least three occasions prior to taking measurements. Mice were maneuvered inside the chamber to stand with one hind paw on each scale. The weight that was placed on each hind limb was measured over a three second period. At least three separate measurements were made for each animal at each time point. The results were expressed as the percentage of the weight placed on the operated limb versus the contralateral unoperated limb.

SMILES: CC1(C)CCC(c2ccc(Cl)cc2)=C(CN2CCN(c3ccc(C(=O)NS(=O)(=O)c4ccc(N[C@H](CCN5CCOCC5)CSc5ccccc5)c(S(=O)(=O)C(F)(F)F)c4)cc3)CC2)C1 [ABT-263]
- SpO2 levels [1]: statistically significant increases

SMILES: Nc1nc(O)c2ncn(COC(CO)CO)c2n1 [ganciclovir]
- SpO2 levels [1]: statistically significant increases

SMILES: CC[C@H](C(=O)N1CCCC[C@H]1C(=O)O[C@H](CCc1ccc(OC)c(OC)c1)c1cccc(OCC(=O)NCC(CNC(=O)COc2cccc([C@@H](CCc3ccc(OC)c(OC)c3)OC(=O)[C@@H]3CCCCN3C(=O)[C@@H](CC)c3cc(OC)c(OC)c(OC)c3)c2)CN(C)C)c1)c1cc(OC)c(OC)c(OC)c1 [AP2018]
- SpO2 levels [1]: statistically significant increases

- platelet and lymphocyte counts versus vehicle treated mice [2]: equivalent
SMILES: COc1ccc(C2=N[C@@H](c3ccc(Cl)cc3)[C@@H](c3ccc(Cl)cc3)N2C(=O)N2CCNC(=O)C2)c(OC(C)C)c1 [Nutlin-3A]
- mass and body fat composition [3]: decreased
- SpO2 levels [1]: statistically significant increases
- reduction of the surface area covered by plaques in the descending aorta [4]: about 45%
- expression of SASP factors and senescent cell markers MMP3, MMP13, PAI1, p21, IGFBP2, IL-1A, and IL-1B in aortic arch ([5]; after one treatment cycle (timepoint 1, week 4)): reduced expression
- expression of SASP factors and senescent cell markers in aortic arch ([5]; multiple treatment cycles (timepoint 2, week 8)): reduced expression of most markers
- expression of p16, IL-6, and MMP13 in the tissue [6]: reduced the expression back to below the level of the controls
- destruction of the proteoglycan layer (histopathology of joint tissue) [7]: completely abrogated this effect
- weight bearing: favoring of the unoperated hind limb over the operated hind limb [8]: abrogated this effect
